Experimental data from patent publication US20120208204A1, “Compositions and Methods for Inhibiting Tumor Growth” (The Brigham and Women's Hospital, Inc., priority 2009, published 2012).

System: SGK2
Assay: Inhibition of kinase activity by SGK2 inhibitory compounds, single concentration
Assay type: biochemical
Details: 10 μM compound
Source text: A library of compounds was screened for inhibitors of SGK2 and PAK3 activity by assaying phosphorylation of a generic peptide substrate either directly; or indirectly by inhibiting upstream kinase PDK1 from activating the enzyme in vitro. In both cases, the phosphorylated substrate was detected using a specific anti-phospho peptide antibody that is coupled with Eu^3+ Cryptate and XL665 conjugated with streptavidin. […] All initial hits were re-assayed as a dose response series with eight 3-fold dilutions and resulting final concentrations ranged from 0.9 nM to 20 μM.

% Inhibition at 10 μM | Compound
92% | O=C(OC1Cc2c(O)cc(O)cc2OC1c1cc(O)c(O)c(O)c1)c1cc(O)c(O)c(O)c1 (centres unmarked) [LDN-0022369]
70% | O=[N+]([O-])c1c(Cl)cc(O)c2c1C1C=CCC1C(c1ccccc1)N2 (centres unmarked) [LDN-0026088]
68% | CCOC(=O)C1C(=O)NC(SCC(=O)Nc2ccc(Br)cc2)=C(C#N)C1c1ccccc1OCC (centres unmarked) [LDN-0028584]
71% | N#Cc1c(N)nc(SCC(=O)Nc2ccc([N+](=O)[O-])c3ccccc23)c(C#N)c1-c1ccco1 [LDN-0028673]
67% | O=C(CSc1nnc(-c2ccco2)[nH]1)c1ccc(O)c(O)c1 [LDN-0031187]
68% | O=C(CSc1nnc(-c2ccncc2)[nH]1)c1ccc(O)c(O)c1 [LDN-0031199]
67% | O=C(NCCCN1CCCCCC1)c1ccc(Cn2c(=S)[nH]c3ccc(Br)cc3c2=O)cc1 [LDN-0036382]
65% | CSc1ccc(-c2nc(-c3ccc(Sc4ccccc4)cc3)c(-c3ccccc3)[nH]2)cc1 [LDN-0044047]
73% | COc1cccc(C2Nc3cccc4cccc(c34)N2)c1OC [LDN-0045022]
91% | Oc1ccc(C2Nc3cccc4cccc(c34)N2)c(O)c1 [LDN-0045038]
89% | C=CCc1cccc(C2Nc3cccc4cccc(c34)N2)c1O [LDN-0045040]
69% | C1=CC2c3cccc4c3N(CC2C1)CC1CC=CC41 (centres unmarked) [LDN-0050317]
89% | O=c1c(O)c(-c2ccc(O)c(O)c2)oc2cc(O)cc(O)c12 [LDN-0052529]
76% | O=c1c(O)c(-c2ccc(O)c(O)c2)oc2cc(O)ccc12 [LDN-0058389]
61% | CN(C)c1ccc(NC(=O)Nc2cccs2)cc1 [LDN-0058882]
94% | O=c1oc2cc(Br)c(O)c(Br)c2s1 [LDN-0060240]
71% | Nc1ccc2[nH]c(C=Cc3ccccc3)nc2c1 [LDN-0060426]
68% | Nc1ccc2[nH]c(C=Cc3ccc(Cl)cc3)nc2c1 [LDN-0060498]
92% | O=C(O)C1Nc2ccc(Br)cc2C2C=CCC12 (centres unmarked) [LDN-0061702]
90% | Cc1ccc(C)n1-c1ccc(O)c(C(=O)O)c1 [LDN-0062564]

% Inhibition at 10 μM | Compound
95% | O=C(O)C1Nc2c(O)cccc2C2C=CCC12 (centres unmarked) [LDN-0062847]
84% | CC(C)COC(=O)c1ccc2c(c1)C1C=CCC1C(C(=O)O)N2 (centres unmarked) [LDN-0068134]
88% | Cc1c2ccccc2nc2c(F)c(NC(C)C)c(F)c(F)c12 [LDN-0071567]
70% | CN(C)c1ccc2nc(SCC(=O)c3ccccc3)sc2c1 [LDN-0073108]
74% | Nc1ccc2c(c1)OC1(CCCC1)O2 [LDN-0073507]
73% | O=C1CC(N2CCCCC2)C=C1Nc1ccc(F)cc1 (centres unmarked) [LDN-0074168]
67% | CCC(=O)N1CCc2cc(Br)cc(S(=O)(=O)Nc3ccc(Br)cc3)c21 [LDN-0074939]
71% | CC#CC1=C(CO)C(=O)C2OC2C1=O (centres unmarked) [LDN-0080086]
62% | Oc1ccc(N=Cc2ccc[nH]2)cc1N=Cc1ccc[nH]1 [LDN-0085170]
67% | Cc1sc(NC(=O)COc2cccc(F)c2)c(C#N)c1C [LDN-0086947]
78% | CCOc1ccc(NC(=O)CSc2ncnc3c2oc2ccccc23)cc1 [LDN-0094202]
73% | O=C(O)c1cc(O)c(=O)c2c(O)c(O)ccc2c1 [LDN-0096503]
70% | C=C1c2cccc(O)c2C(=O)C2=C(O)C3(O)C(=O)C(C(N)=O)=C(O)C(N(C)C)C3C(O)C12.Cl (centres unmarked) [LDN-0096663]
84% | Oc1cc(O)c2c(c1)OC(O)(c1ccc(O)c(O)c1)C(O)C2 (centres unmarked) [LDN-0096696]
93% | O=C(OC1Cc2c(O)cc(O)cc2OC1c1ccc(O)c(O)c1)c1cc(O)c(O)c(O)c1 (centres unmarked) [LDN-0096721]
94% | O=c1c(O)cccc2cc(O)c(O)c(O)c12 [LDN-0096727]
87% | O=c1c(O)cccc2ccc(O)c(O)c12 [LDN-0096728]
96% | CC(=O)Oc1cc(-c2coc3cc(OC(C)=O)c(OC(C)=O)c(OC(C)=O)c3c2=O)cc(OC(C)=O)c1OC(C)=O [LDN-0096738]
85% | O=c1oc2c(O)c(O)cc3c(=O)oc4c(O)c(O)cc1c4c23 [LDN-0097519]
93% | O=C1C=C2CC3(O)COc4c(ccc(O)c4O)C3=C2C=C1O (centres unmarked) [LDN-0097524]

More lines, now with the values behind:

Compound | % Inhibition at 10 μM
Oc1cc(O)c2c(c1)O[C@@]1(c3ccc(O)c(O)c3)Oc3cc(O)c4c(c3[C@@H]2[C@H]1O)O[C@H](c1ccc(O)c(O)c1)[C@H](O)[C@H]4c1c(O)cc(O)c2c1O[C@H](c1ccc(O)c(O)c1)[C@H](O)C2 [LDN-0022358] | 93%
CC1=C(C(=O)OCc2ccc3c(c2)OCO3)C(c2cccc(Oc3ccccc3)c2)NC(=O)N1 (centres unmarked) [LDN-0025562] | 60%
N#Cc1c(N)nc(SCC(=O)c2ccc(O)c(O)c2)c(C#N)c1-c1ccc(O)cc1 [LDN-0028574] | 91%
CC(=O)Oc1ccc(C2Nc3c(C(=O)O)ccc([N+](=O)[O-])c3C3C=CCC32)cc1 (centres unmarked) [LDN-0033447] | 65%
O=C(C=Cc1ccco1)c1ccc2c(c1)C1C=CCC1C(c1ccc(Cl)cc1)N2 (centres unmarked) [LDN-0033450] | 94%
NS(=O)(=O)c1ccc(CCNC(=O)c2ccc3c(=O)n(Cc4ccco4)c(=S)[nH]c3c2)cc1 [LDN-0036137] | 74%
O=C(Nc1ccc(O)c(-c2nc3ccccc3s2)c1)c1cccc(N2C(=O)CCC2=O)c1 [LDN-0041592] | 74%
Cc1cc2c3c(c(Br)cc(S(=O)(=O)O)c3n1)C(=O)c1ccccc1-2 [LDN-0042012] | 87%
O=C(O)c1cc2c3c(c1)C1C=CCC1CN3CC1CC=CC21 (centres unmarked) [LDN-0043107] | 73%
Oc1ccc(-c2nc(-c3ccc4sc5ccccc5c4c3)c(-c3ccccc3)[nH]2)cc1 [LDN-0044883] | 64%
Oc1ccc(-c2nc(-c3ccc4sc5ccccc5c4c3)c(-c3ccccc3)[nH]2)cc1O [LDN-0044885] | 70%
Oc1cccc(C2Nc3cccc4cccc(c34)N2)c1 [LDN-0045024] | 90%
CCN(CC)c1ccc(C2Nc3cccc4cccc(c34)N2)c(O)c1 [LDN-0045032] | 68%
Oc1ccccc1C1Nc2cccc3cccc(c23)N1 [LDN-0045035] | 89%
CN(C)c1ccc(C2=Nc3cccc4cccc(c34)N2)cc1 [LDN-0047445] | 79%
N#CC1=C(NC(=O)Cc2ccccc2)c2ccccc2CC12CCCCC2 [LDN-0047862] | 95%
c1ccc(Sc2ccc(-c3nc(-c4ccccc4)[nH]c3-c3ccccc3)cc2)cc1 [LDN-0048956] | 68%
CN(C)c1ccc(C=Cc2nc3cc(N)ccc3[nH]2)cc1 [LDN-0060496] | 67%
CN(C)c1ccc(-c2nc3cc(N)ccc3[nH]2)cc1 [LDN-0060537] | 72%
O=c1oc2c(Br)c(O)c(Br)cc2s1 [LDN-0060733] | 93%
O=c1cc(-c2ccccc2)c2ccc(O)c(O)c2o1 [LDN-0063260] | 98%
Nc1ccc2oc3ccc(N)cc3c(=O)c2c1 [LDN-0063356] | 50%

Compound | % Inhibition at 10 μM
Oc1ccccc1-c1cc(-c2ccco2)[nH]n1 [LDN-0064229] | 85%
CN1c2ccccc2Sc2cc(N)ccc21 [LDN-0065927] | 52%
Nc1ccc2[nH]c(-c3ccco3)nc2c1 [LDN-0065931] | 78%
N#Cc1c(-c2ccco2)cc(-c2cccs2)nc1N [LDN-0071067] | 80%
Cc1c2ccccc2nc2c(F)c(NCCO)c(F)c(F)c12 [LDN-0071563] | 88%
COc1cccc(=O)c2c(C)n(CC(=O)c3ccccc3)c(C)c12 [LDN-0071595] | 64%
Oc1ccc(-c2csc(NCc3ccco3)n2)cc1 [LDN-0071858] | 65%
CNC(=O)Oc1c(Br)cc2sc(=O)oc2c1Br [LDN-0072860] | 72%
CCCc1cc2c(cc1N)OCO2 [LDN-0073854] | 67%
Oc1c(Cl)cc(Cl)c2c1NCCC2 [LDN-0073973] | 67%
Oc1ccc(Cl)cc1-c1cc(-c2ccco2)n[nH]1 [LDN-0086824] | 68%
Oc1cccc2ccc(Nc3ccccn3)nc12 [LDN-0088017] | 84%
O=C(O)C1C2CC=CC2c2cc(Br)cc3c2N1CC1CC=CC31 (centres unmarked) [LDN-0088050] | 67%
c1coc(C2=Nc3cccc4cccc(c34)N2)c1 [LDN-0088682] | 80%
Cc1cc(N)c2ccccc2[n+]1CCCCCCCCCC[n+]1c(C)cc(N)c2ccccc21.[Cl-].[Cl-] [LDN-0096422] | 79%
O=c1cc(-c2ccccc2)oc2cc(O)c(O)c(O)c12 [LDN-0096673] | 67%
O=c1cc(C2Oc3cc(O)cc(O)c3CC2O)cc2c(C3Oc4cc(O)cc(O)c4CC3O)cc(O)c(O)c2c1O (centres unmarked) [LDN-0096771] | 89%
O=c1c(-c2cc(O)c(O)c(O)c2)coc2cc(O)c(O)c(O)c12 [LDN-0096812] | 97%
Oc1cc2c(cc1O)C1c3ccc(O)c(O)c3OCC1(O)C2 (centres unmarked) [LDN-0096990] | 91%
Oc1cc(O)c2c(c1)OC(c1cc(O)c(O)c(O)c1)C(O)C2 (centres unmarked) [LDN-0097128] | 68%
C=C1c2c(Cl)ccc(O)c2C(=O)C2=C(O)C3(O)C(=O)C(C(N)=O)=C(O)C(N(C)C)C3C(O)C12.O=C(O)c1cc(S(=O)(=O)O)ccc1O (centres unmarked) [LDN-0097423] | 76%
